Measurements reported in patent US20200361871A1 (Enterprise Therapeutics Ltd., priority 2018, published 2020).

Target: human TMEM16A (TMEM16Aabc variant) (Homo sapiens, UniProt Q5XXA6, DEL476-501, form not given)
Experiment: Automated whole-cell patch clamp (Qpatch) TMEM16A potentiator assay in FRT cells stably expressing human TMEM16A
Format: cell-based
Settings: for % Potentiation @ 3.33 μM Avg: 3.33 μM solution of test compound, percentage increase of baseline TMEM16A current; for EC50: calculated EC50, Qpatch TMEM16A current at +70 mV
Description: FIG. 1 is an example trace from a whole-cell patch clamp (Qpatch) TMEM16A potentiator assay as used in Biological Example 95 and illustrates the methodology used in the assay. In FIG. 1: S is Saline; V is Vehicle; #1 is Test Compound concentration #1; #2 is Test Compound concentration 2; #3 is Test Compound concentration 3; #4 is Test Compound concentration 4; #5 is Test Compound concentration #5; and R is Reference. The arrow in column V represents the baseline current, IBL. The arrows in each of the columns #1, #2, #3, #4, #5 and R represent I#[1], I#[2], I#[3], I#[4], I#[5] and I[Ref], which are the peak currents during the incubation periods for test compounds concentrations #1 to #5 and the Reference.
Fisher rat thyroid (FRT) cells stably expressing human TMEM16A (TMEM16Aabc variant; Dr Luis Galietta, Insituto Giannina, Italy) were cultured in T-75 flasks in Hams F-12 media with Coon's modification (Sigma) supplemented with 10% (v/v) foetal bovine serum, penicillin-streptomycin (10,000 U/mL/10000 μg/mL), G-418 (750 μg/mL), L-glutamine (2 mM) and sodium bicarbonate solution (7.5% v/v). At ˜90% confluence cells were harvested for experiments by detachment with a 2:1 (v/v) mixture of Detachin (BMS Biotechnology) and 0.25% (w/v) trypsin-EDTA. Cells were diluted to a density of 3.5-4.5×10^6 cells/mL with media consisting of CHO-S-SFM II (Sigma), 25 mM HEPES (Sigma) and Soy bean trypsin inhibitor (Sigma).
FRT-TMEM16A cells were whole-cell patch clamped using an automated planar patch clamp system (Qpatch, Sophion). Briefly, once high resistance (GOhm) seals were established between the cells and the planar recording array the patch was ruptured using suction pulses to establish the whole-cell recording configuration of the patch clamp technique. The assay employed the following solutions (all reagents Sigma): Intracellular solution (mM): N-methyl-D-glucamine 130, CaCl2 18.2, MgCl2 1, HEPES 10, EGTA 10, BAPTA 20, Mg-ATP 2, pH 7.25, 325 mOsm with sucrose.
Extracellular solution (mM): N-methyl-D-glucamine 130, CaCl2 2, MgCl2 1, HEPES 10, pH 7.3, 320 mOsm with sucrose.
The intracellular solution buffers intracellular calcium at levels required to give ˜20% activation of the maximal TMEM16A mediated current (EC20 for calcium ions). Cells were voltage clamped at a holding potential of −70 mV and a combined voltage step (to +70 mV)/ramp (−90 my to +90 mV) was applied at 0.05 Hz. After a period of current stabilisation test compounds, solubilised in 100% (v/v) DMSO and subsequently diluted into extracellular solution, were applied to generate a cumulative concentration response curve. Each concentration of test compound was incubated for 5 minutes before addition of the next concentration. After the final concentration was tested a supramaximal concentration of either a known active positive modulator or the TMEM16A inhibitor, CaCCinhA01 (Del La Fuente et al, 2008) was added to define the upper and lower limits of the assay.
Compound activity was quantified by measuring the increase in current upon compound addition and expressing this as a percentage increase of baseline TMEM16A current level. Percentage increases in current were determined for each concentration and the data plotted as a function of concentration using either the Qpatch software or Graphpad Prism v6.05 providing the concentration which gave 50% of its maximal effect (EC50) and maximum efficacy (percentage of baseline increase).
In FIG. 1, IBL equals baseline current, I[#1] equals the peak current during test compound concentration 1 incubation period and so on.
Peak TMEM16A current at +70 mV was plotted as a function of time over the assay period. Baseline current (IBL) was measured after a period of stabilisation. The increase in current for each compound addition was determined by taking the peak current during the incubation period and subtracting the current from the previous recording period and then expressing this as a percentage of the baseline current. […]

human TMEM16A (TMEM16Aabc variant), sequence (Q5XXA6 with tags, fused parts or gaps DEL476-501): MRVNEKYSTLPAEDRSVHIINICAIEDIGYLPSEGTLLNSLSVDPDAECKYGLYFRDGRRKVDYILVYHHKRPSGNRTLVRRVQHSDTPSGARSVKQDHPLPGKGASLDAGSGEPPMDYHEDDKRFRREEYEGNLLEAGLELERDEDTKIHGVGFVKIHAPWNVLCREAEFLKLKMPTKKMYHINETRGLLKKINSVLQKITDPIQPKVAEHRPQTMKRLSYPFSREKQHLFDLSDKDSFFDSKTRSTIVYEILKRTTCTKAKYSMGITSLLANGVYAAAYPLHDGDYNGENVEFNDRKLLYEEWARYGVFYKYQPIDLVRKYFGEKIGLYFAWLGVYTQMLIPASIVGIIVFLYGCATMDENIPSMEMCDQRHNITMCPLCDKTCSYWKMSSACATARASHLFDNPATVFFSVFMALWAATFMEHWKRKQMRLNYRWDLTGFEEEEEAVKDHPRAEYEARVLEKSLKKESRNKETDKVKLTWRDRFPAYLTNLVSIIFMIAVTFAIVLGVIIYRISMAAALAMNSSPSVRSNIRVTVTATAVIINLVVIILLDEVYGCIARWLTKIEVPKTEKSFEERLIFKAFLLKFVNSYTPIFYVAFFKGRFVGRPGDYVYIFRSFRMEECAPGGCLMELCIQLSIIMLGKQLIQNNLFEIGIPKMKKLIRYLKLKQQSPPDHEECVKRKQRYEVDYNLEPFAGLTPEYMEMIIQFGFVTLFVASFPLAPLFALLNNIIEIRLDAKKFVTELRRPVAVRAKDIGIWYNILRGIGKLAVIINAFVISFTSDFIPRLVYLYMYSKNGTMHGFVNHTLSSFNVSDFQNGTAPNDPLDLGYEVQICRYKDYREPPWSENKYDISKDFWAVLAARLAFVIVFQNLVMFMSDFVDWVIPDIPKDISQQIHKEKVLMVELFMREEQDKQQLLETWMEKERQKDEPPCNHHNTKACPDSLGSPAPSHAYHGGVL

SMILES | % Potentiation @ 3.33 μM Avg [%] | EC50 [nM]
N#CC1(NC(=O)c2cc(NC(=O)Cc3cc(Cl)ccc3O)ccn2)CCC1 [Example 7.16, 4-[[2-(5-Chloro-2-hydroxy-phenyl)acetyl]amino]-N-(1-cyanocyclobutyl)pyridine-2-carboxamide] | 354 | 130
C#CC(C)(C)NC(=O)c1cc(NC(=O)Cc2ccccc2F)ccn1 [Example 60.2, N-(1,1-Dimethylprop-2-ynyl)-4-[[2-(2-fluorophenyl)acetyl]amino]pyridine-2-carboxamide] | 169 | 200
COC(=O)CC1(NC(=O)c2cc(NC(=O)Cc3cc(Cl)ccc3O)ccn2)CCOCC1 [Example 47.1, Methyl2-[4-[[4-[[2-(5-chloro-2-hydroxy-phenyl)acetyl]amino]pyridine-2-carbonyl]amino]tetrahydropyran-4-yl]acetate] | 156 | 1920
CC(C)(C)NC(=O)c1cc(NC(=O)Cc2cc(-c3ccccc3)ccc2O)ccn1 [Example 26, N-tert-Butyl-4-[[2-(2-hydroxy-5-phenyl-phenyl)acetyl]amino]pyridine-2-carboxamide] | 108 | 
CC(C)(C)NC(=O)c1cc(NC(=O)Cc2cccc(F)c2Cl)ccn1 [Example 40, N-tert-Butyl-4-[[2-(2-chloro-3-fluoro-phenyl)acetyl]amino] pyridine-2-carboxamide] | 153 | 700
N#CC1(NC(=O)c2cc(NC(=O)Cc3ccc4ncccc4c3)ccn2)CCOCC1 [Example 23.16, N-(4-Cyanotetrahydropyran-4-yl)-4-[[2-(6-quinolyl)acetyl]amino]pyridine-2-carboxamide] | 68 | 1400
CC(C)(C)NC(=O)c1cc(NC(=O)Cc2ccc(O)c(Cl)c2)ccn1 [Example 5.21, N-tert-Butyl-4-[[2-(3-chloro-4-hydroxy-phenyl)acetyl]amino]pyridine-2-carboxamide] | 172 | 510
CC(C)(C)c1ccc(O)c(CC(=O)Nc2ccnc(C(=O)NC34CC(C3)C4)c2)c1 [Example 25, N-(3-Bicyclo[1.1.1]pentanyl)-4-[[2-(5-tert-butyl-2-hydroxy-phenyl)acetyl]amino] pyridine-2-carboxamide] | 330 | 370
CC(C)(C#N)NC(=O)c1cc(NC(=O)Cc2cc(F)ccc2O)ccn1 [Example 81, N-(1-Cyano-1-methyl-ethyl)-4-[[2-(5-fluoro-2-hydroxy-phenyl)acetyl]amino] pyridine-2-carboxamide] | 151 | 370
CC(C(=O)Nc1cccc(C(=O)NC(C)(C)C)c1)c1ccccc1O (centres unmarked) [Example 2.7, N-tert-Butyl-3-[2-(2-hydroxyphenyl)propanamido]benzamide] | 51 | 8190
N#CC1(NC(=O)c2cc(NC(=O)Cc3ccccc3Cl)ccn2)CCCC1 [Example 30.12, 4-[[2-(2-Chlorophenyl)acetyl]amino]-N-(1-cyanocyclopentyl)pyridine-2-carboxamide] | 314 | 
CC(C)(CF)NC(=O)c1cc(NC(=O)Cc2ccccc2Cl)ccn1 [Example 30.10, 4-[[2-(2-Chlorophenyl)acetyl]amino]-N-(2-fluoro-1,1-dimethyl-ethyl)pyridine-2-carboxamide] | 265 | 
CC(C)(C)NC(=O)c1cc(NC(=O)Cc2ccc(C(C)(C)C)cc2N)ccn1 [Example 88, 4-[[2-(2-Amino-4-tert-butyl-phenyl)acetyl]amino]-N-tert-butyl-pyridine-2-carboxamide] | 270 | 240
CC(C)(C)NC(=O)c1cccc(NC(=O)Cc2cccc(O)c2)c1 [Example 4, N-tert-Butyl-3-[[2-[3-hydroxyphenyl]acetyl]amino]benzamide] | 96 | 1500
CC(C)(C)OC(=O)N1CCCC(NC(=O)c2cc(NC(=O)Cc3cc(Cl)ccc3O)ccn2)C1 (centres unmarked) [Example 8.1, tert-Butyl-3-[[4-[[2-(5-chloro-2-hydroxy-phenyl)acetyl]amino]pyridine-2-carbonyl]amino]piperidine-1-carboxylate] | 155 | 590
O=C(Cc1cc(Cl)ccc1O)Nc1ccnc(C(=O)NCCCOc2ccccc2)c1 [Example 35.7, 4-[[2-(5-Chloro-2-hydroxy-phenyl)acetyl]amino]-N-(3-phenoxypropyl)pyridine-2-carboxamide] | 97 | 
CC(C)(C)OC(=O)N1CCCC(NC(=O)c2cccc(NC(=O)Cc3cc(Cl)ccc3O)c2)C1 (centres unmarked) [Example 8, tert-Butyl-3-[[3-[[2-(5-chloro-2-hydroxy-phenyl)acetyl]amino]benzoyl]amino] piperidine-1-carboxylate] | 88 | 3020
COC(C)c1cc(Cl)cc(CC(=O)Nc2ccnc(C(=O)NC(C)(C)C)c2)c1O (centres unmarked) [Example 62, N-tert-Butyl-4-[[2-[5-chloro-2-hydroxy-3-(1-methoxyethyl)phenyl]acetyl]amino] pyridine-2-carboxamide] | 99 | 
CC(C)(C)NC(=O)c1cc(NC(=O)Cc2ncccc2O)ccn1 [Example 19, N-tert-Butyl-4-[[2-(3-hydroxy-2-pyridyl)acetyl]amino]pyridine-2-carboxamide] | 57 | 
Cn1c(=O)c(C(=O)Nc2ccnc(C(=O)NC(C)(C)C#N)c2)cc2ccccc21 [Example 83.32, N-[2-[(1-Cyano-1-methyl-ethyl)carbamoyl]-4-pyridyl]-1-methyl-2-oxo-quinoline-3-carboxamide] | -16 | 
CC(C)(C)NC(=O)c1cc(NC(=O)Cc2cc(Cl)c(Br)cc2O)ccn1 [Example 3.4a, 4-[[2-(4-Bromo-5-chloro-2-hydroxy-phenyl)acetyl]amino]-N-tert-butyl-pyridine-2-carboxamide] | 206 | 140
CC(C)C(C)(C)NC(=O)c1cc(NC(=O)Cc2cc(Cl)ccc2O)ccn1 [Example 7.6, 4-[[2-(5-Chloro-2-hydroxy-phenyl)acetyl]amino]-N-(1,1,2-trimethylpropyl)pyridine-2-carboxamide] | 285 | 100
CC(C)(C)NC(=O)c1cc(NC(=O)NCc2ccccc2)ccn1 [Example 64, 4-(Benzylcarbamoylamino)-N-tert-butyl-pyridine-2-carboxamide] | 55 | 
CC(C)(C#N)NC(=O)c1cc(NC(=O)c2ccccc2-n2cccn2)ccn1 [Example 83.15, N-(1-Cyano-1-methyl-ethyl)-4-[(2-pyrazol-1-ylbenzoyl)amino]pyridine-2-carboxamide] | -10 | 
CC(C)(C)NC(=O)c1cc(NC(=O)Cc2cc(CCCO)ccc2O)ccn1 [Example 75, N-tert-Butyl-4-[[2-[2-hydroxy-5-(3-hydroxypropyl)phenyl]acetyl]amino]pyridine-2-carboxamide] | 34 | 
C#CC(C)(C)NC(=O)c1cc(NC(=O)CN2CCOc3ccccc32)ccn1 [Example 5.39, 4-[[2-(2,3-Dihydro-1,4-benzoxazin-4-yl)acetyl]amino]-N-(1,1-dimethylprop-2-ynyl)pyridine-2-carboxamide] | 147 | 
